Where two headings read alike, the source gives them in different places.
Tests used:
[1] = tested on: MCF-7 cells; test: Alamar blue fluorescence viability (IC50), MCF-7; assay type: cell-based; details: for IC50: Homo sapiens, MCF7
Method: (§1) Cancer Cell Lines: Culturing Conditions and Validation. All cell lines were cultured at 37° C. with 5% CO2. All ERα-positive cell lines were grown in media lacking phenol red. MCF-7 were grown in EMEM with 10% FBS and 1% penicillin-streptomycin (P/S). T47D were cultured in MEM with 10% FBS and 1% P/S. TYS and TDG cells were grown in MEM supplemented with 10% CD-FBS and 1% P/S. HCT-116 and MDA-MB-231 cells were cultured in RPMI-1640 supplemented with 10% FBS and 1% P/S. MDA-MB-436 cells were cultured in DMEM supplemented with 10% FBS and 1% P/S. HT-29 were cultured in McCoy's media supplemented with 10% FBS and 1% P/S. All cell lines were used directly from ATCC stocks and/or have been further authenticated using PowerPlex16HS Assay (Promega) as described previously.^54 In short, >1 million cells were harvested and lysed using the cell lysis buffer (50 mM Tris, 50 mM EDTA, 25 mM sucrose, 100 mM NaCl, 1% SDS, pH 8). DNA extraction and short tandem repeats (STRs) profiling for each cell line were carried out at the University of Arizona Genetics Core (UAGC). Autosomal STR profiles were compared to reference databases such as ATCC, DSMZ, and JCRB.
(§2) Alamar Blue Fluorescence for Anticancer Activity (IC50). 2,000-15,000 cells per well were seeded a 96-well plate. Cells were allowed to adhere before DMSO stock solutions of test compounds were added to each well with a final concentration of DMSO in each well=1%; final volume: 100 μL. At the end of the desired incubation time (e.g., 24 or 72 hours), media in each well was aspirated and new fresh media (no compound, 100 μL) was added. Alamar blue solution (4 mg resazurin per 40 mL PBS) was then added (10 μL). After 2-6 hours incubation, each well's fluorescence (λexcit.=555 nm, λemission.=585 nm) was measured using a SpectraMax M3 plate reader (Molecular Devices). Percent dead was determined by comparison to a 100% dead control: 100 μM raptinal treated cells. Dose dependent curves and IC50 were calculated using Origin Pro V10.

[2] = tested on: anticipatory unfolded protein response (a-UPR); test: a-UPR immunoblotting/western blot in MCF-7 cells; assay type: cell-based
Method: a-UPR Immunoblotting/Western Blot Procedure. 400,000 MCF-7 cells/per well were seeded into 6 or 12 well plates and allowed to adhere overnight. Media was then aspirated from each well and then fresh media with diluted test compound (0.1% DMSO concentration) was added accordingly. Cells were incubated for 4 or 6 hours, then harvested. PBS-washed cell pellets were then lysed using RIPA buffer containing phosphatase (BioVision) and protease inhibitor cocktail (Calbiochem). Protein concentrations were determined using the BCA assay (Pierce). Lysates containing 10-15 μg of protein were loaded onto 4-20% gradient gels (BioRad), and SDS-PAGE was run. Proteins were then transferred onto membrane (PDVF Millipore) and blots blocked with BSA solution (2 g in 40 mL TBST) for one hour. After blocking, primary antibody was added and incubated overnight (using manufacturer's recommended dilutions). Following overnight incubation, blots were washed with TBST (5-minute incubation for each wash, washed 3 times), then incubated with HRP-linked secondary antibody for 1 hour in TBST. Blots were washed (10-minute incubation for each wash for a total of two ten-minute washes). SuperSignal West Pico Solution was then added following manufacturer's procedures and blots imaged with ChemiDoc.
Antibodies. […]

[3] = Simulated gastric fluid (SGF) stability assay; assay type: in vitro ADME; details: for half-life at 100 μM: simulated gastric fluid with pepsin, pH 1.2
Method: Simulated Gastric Fluid (SGF) Stability Assay. SGF was prepared fresh by adding 3.2 g pepsin (Sigma Aldrich P7000) to 1000 mL of SGF (Fischer Scientific 7108-16) and the pH adjusted to 1.2 using a pH meter. This SGFwith pepsin solution was then warmed to 37° C. 990 μL of warmed SGFwith pepsin was then aliquoted into multiple Eppendorf tubes, followed by 10 μL of 10 mM DMSO stock solutions of test compounds. Erythromycin (MedChemExpress HY-B0220) is a positive control for this stability assay. Samples were incubated at 37° C. for the entire experiment with vortexing every 15 minutes. At each desired time point (0, 15, 30, 60, 120 minutes), a 100 μL aliquot is removed and quenched into 50 μL of acetonitrile. Samples are stored at 4° C. until all time points are complete. Samples were then vortexed and then clarified at 3,000 RPM for 10 minutes in a 4° C. centrifuge. Supernatants were collected and compound concentrations determined by LC-MS/MS (UIUC Metabolomics Center, Urbana, IL.). Determined compound concentrations were used to calculate percent remaining compared to t=0 samples.

[4] = tested on: ERα− cancer cell lines; test: Selectivity of cell killing, ERα+ versus ERα− cancer cell lines; assay type: cell-based; details: MDA-MB-231, HCT-116, HT-29; for potencies against ERα− cancer cell lines (in words): 24- and 72-hour incubations
Method: as §1, §2

[5] = tested on: HT-29; test: Alamar blue fluorescence viability (IC50), HT-29; assay type: cell-based; details: Homo sapiens, HT-29, ERα negative
Method: as §1, §2

[6] = tested on: T47D-ERaY537S (TYS); test: Alamar blue fluorescence viability (IC50), TYS; assay type: cell-based; details: 24 h, read-out: IC50 24 hr (μM)
Method: as §1, with “DNA extraction and short tandem repeats (STRs) profiling for each cell line were carried out at the University of Arizona Genetics Core (UAGC). Autosomal STR profiles were compared to reference databases such as ATCC, DSMZ, and JCRB.” left out
(§3) Alamar Blue Fluorescence for Anticancer Activity (IC50). […] After 2-6 hours incubation, each well's fluorescence (λexcit.=555 nm, λemission.=585 nm) was measured using a SpectraMax M3 plate reader (Molecular Devices). Percent dead was determined by comparison to a 100% dead control: 100 μM raptinal treated cells. Dose dependent curves and IC50 were calculated using Origin Pro V10.

[7] = tested on: T47D-ERαD538G (TDG); test: Alamar blue fluorescence viability (IC50), TDG; assay type: cell-based; details: TDG, ERα positive, 24 hr; read-out: IC50 24 hr
Method: as §1, with “DNA extraction and short tandem repeats (STRs) profiling for each cell line were carried out at the University of Arizona Genetics Core (UAGC). Autosomal STR profiles were compared to reference databases such as ATCC, DSMZ, and JCRB.” left out
as §3

[8] = tested on: MDA-MB-231; test: Alamar blue fluorescence viability (IC50), MDA-MB-231; assay type: cell-based; details: Homo sapiens, MDA-MB-231, ERα negative
Method: as §1, §2

[9] = tested on: HCT-116; test: Alamar blue fluorescence viability (IC50), HCT-116; assay type: cell-based; details: for IC50: Homo sapiens, HCT-116, ERα negative
Method: as §1, §2

[10] = tested on: MCF-7 tumors; test: MCF-7 orthotopic tumor model; assay type: in vivo, mice; details: I.V. 5 mg/kg once-a-week, three total doses
Method: MCF-7 Orthotopic Tumor Model. Nu/J ovariectomized mice (Jackson's lab) were supplemented with a 60-day E2 pellet (0.36 mg, Innovative Research of America) 2-3 days prior to tumor cell inoculation. MCF-7 cells (5×10^6, in 1:1 HBSS:matrigel) were inoculated into the mammary fat pad and allowed to establish and tumors grown to ˜300-400 mm^3 (˜21-28 days to establish). […] Tumor size was measured by caliper, and mouse weights were recorded.

[11] = tested on: MDA-MB-436; test: Alamar blue fluorescence viability (IC50), MDA-MB-436; assay type: cell-based; details: Homo sapiens
Method: as §1, §2

[12] = tested on: canines; details: cited from earlier work
[13] = Maximum tolerated dose (MTD) in mice; assay type: in vivo; details: female, CD-1, mouse, in vivo, iv
Excerpt: (§4) Maximum Tolerated Dose (MTD) Experiments in Mice and Rats. […] Rodents were monitored for signs of distress, lethargy, neurotoxicity, and so forth for multiple days after compound administration. […] The MTD was defined as the maximum dose in which any acute side effects observed were tolerated and no lethality observed.

[14] = Maximum tolerated dose (MTD) in rats; assay type: in vivo; details: Sprague Dawley, rat, in vivo, iv
Excerpt: as §4

[15] = tested on: T47D; test: Alamar blue fluorescence viability (IC50), T47D; assay type: cell-based; details: Homo sapiens, 24 h, read-out: IC50 24 hr (μM)
Method: as §1, with “DNA extraction and short tandem repeats (STRs) profiling for each cell line were carried out at the University of Arizona Genetics Core (UAGC). Autosomal STR profiles were compared to reference databases such as ATCC, DSMZ, and JCRB.” left out
as §3

[16] = Pharmacokinetic (PK) studies in mice; assay type: in vivo
Method: Pharmacokinetic (PK) Studies. […] Mice were then sacrificed in cohorts of 3 at time points (#, #, #). Blood was collected, centrifuged, and plasma separated for quantification of test compound utilizing LC-MS/MS (UIUC Metabolomics Center, Urbana, IL.). Determined compound concentration was then analyzed using non-linear regression programing (WinNonlin) and pharmacokinetic parameters estimated.

[17] = In vitro metabolite assessment of ErSO; assay type: in vitro ADME
[18] = tested on: CD-1 mice; test: Maximum tolerated dose (MTD) in mice; assay type: in vivo; details: mouse, in vivo, iv
Excerpt: as §4

[19] = tested on: CD Sprague Dawley IGS rats; test: Maximum tolerated dose (MTD) in rats; assay type: in vivo; details: rat, in vivo
Excerpt: as §4

[20] = 100 μM in SGF with pepsin, one-phase decay, read-out: t1/2 (min) (95% CI)
[21] = MCF-7 cells, 24 hours, Alamar blue, mean ± s.e.m., read-out: IC50
[22] = female, CD-1, mouse, plasma, iv, I.V. 20 mg/kg

**Q.** With `O=C1Nc2c(C(F)(F)F)cccc2[C@]1(c1ccc(O)cc1)N1CCC(F)(F)CC1` (single isomer, unassigned) [(S)-2] as the compound, how does the “anticancer activity against MCF-7 cells (in words)” value ([1]; MCF-7 cells) read?
**A.** The value was “devoid of any activity”.

**Q.** What about the “a-UPR activation (P-AMPK, P-EIF2α, cleavage of ATF6α p90), western blot” value [2] of the same compound?
**A.** Its value is “No activation of the a-UPR”.

**Q.** With `O=C1Nc2c(C(F)(F)F)cccc2[C@@]1(c1ccc(O)cc1)N1CCC(F)(F)C1` [(R)-24, (R)-3-(3,3-difluoropyrrolidin-1-yl)-3-(4-hydroxyphenyl)-7-(trifluoromethyl)indolin-2-one] as the compound, how does the “% Remaining after 120 min (SD)” value ([3]; 100 μM in SGF with pepsin) read?
**A.** Its value is 20±1%.

**Q.** And the half-life at 100 μM [3, 20]?
**A.** Its half-life at 100 μM is 62 min.

**Q.** What about the “potencies against ERα− cancer cell lines (in words)” value [4] of the same compound?
**A.** The value was “double-digit micromolar”.

**Q.** With `O=C1Nc2c(C(F)(F)F)cccc2[C@@]1(c1ccc(O)cc1)N1CC(F)(F)C(F)(F)C1` [Compound (R)-26, (R)-3-(4-hydroxyphenyl)-3-(3,3,4,4-tetrafluoropyrrolidin-1-yl)-7-(trifluoromethyl)indolin-2-one] as the compound, how does the “% Remaining after 120 min (SD)” value ([3]; 100 μM in SGF with pepsin) read?
**A.** Its value is 27±1%.

**Q.** And the half-life at 100 μM [3, 20]?
**A.** Its half-life at 100 μM is 77 min.

**Q.** And the “fold change MCF-7 versus ERα− cell lines” value [4]?
**A.** Its value is at least 3500.

**Q.** And the “potencies against ERα− cancer cell lines (in words)” value [4]?
**A.** The value was “double-digit micromolar”.

**Q.** And the IC50 ([1]; MCF-7, 24 and 72 hr, read-out: IC50 values)?
**A.** The IC50 was 4 to 5 nM.

**Q.** Which results are given for `O=C1Nc2c(C(F)(F)F)cccc2[C@@]1(c1ccc(O)cc1)c1ccc(OC(F)(F)F)cc1` [ErSO, (R)-3-(4-hydroxyphenyl)-3-(4-(trifluoromethoxy)phenyl)-7-(trifluoromethyl)indolin-2-one, reference compound]?
**A.** IC50 ([5]; 24 hr, read-out: IC50 24 hr): 210 ± 60 nM; IC50 ([5]; 72 hr, read-out: IC50 72 hr): 250 ± 70 nM; IC50 [6]: 0.01 ± 0.001 µM; IC50 [7]: 15 ± 1 nM; IC50 ([8]; 24 hr, read-out: IC50 24 hr): 23000 ± 3000 nM; IC50 ([8]; 72 hr, read-out: IC50 72 hr): 8000 ± 1000 nM; effects bottom out at (% cell death at lower concentrations) ([9]; HCT-116 cells, bottom of IC50 curve): ~38%; IC50 ([9]; 24 hr, read-out: IC50 24 hr): 11000 nM; IC50 ([9]; 72 hr, read-out: IC50 72 hr): 260 nM; mouse weight change during MCF-7 study [10]: no significant weight change; IC50 ([11]; MDA-MB-436, 24 h, read-out: IC50 24 hr (μM)): 22 ± 1 µM; IC50 ([11]; MDA-MB-436, 72 h, read-out: IC50 72 hr (μM)): 14 ± 1 µM; tolerated oral dose [12]: greater than 150 mg/kg; % Remaining after 120 min (SD) ([3]; 100 μM in SGF with pepsin): 93±1%; half-life at 100 μM ([3]; SGF with pepsin, read-out: half-life in SGF): > 120 min; MTD [13]: 20 mg/kg; MTD [14]: 10 to 15 mg/kg; IC50 [15]: 0.02 ± 0.001 µM; IC50 ([1]; MCF-7, ERα positive, 24 hr, read-out: IC50 24 hr): 20 ± 2 nM; IC50 ([1]; MCF-7, ERα positive, 72 hr, read-out: IC50 72 hr): 14 ± 1 nM; IC50 [1, 21]: 20 nM; CL ([16]; I.V. 20 mg/kg): 33 mL/min/kg; AUC [16, 22]: 10100 ng·h/mL; Cmax [16, 22]: 7710 ng/mL; Vd ([16]; female, CD-1, mouse, plasma, iv, I.V. 20 mg/kg, read-out: Vss): 10.2 L/kg; bioavailability ([16]; female, CD-1, mouse, plasma, po, read-out: oral availability F %): 47%

**Q.** What does the source list for `O=C1Nc2c(C(F)(F)F)cccc2[C@]1(c1ccc(OC(F)(F)F)cc1)c1ccc(O)c(O)c1` [ErSO-OH, (S)-3-(3,4-dihydroxyphenyl)-3-(4-(trifluoromethoxy)phenyl)-7-(trifluoromethyl)indolin-2-one]?
**A.** abundance as metabolite of ErSO [17]: < 1%; intravenous tolerability in mice (in words) [18]: greater intravenous tolerability in mice; rat tolerability (in words) [19]: no gains in rat tolerability; IC50 [1, 21]: 24 nM

Source: patent US12655104B2, “Anticancer compounds selective for ER-positive cancers” (THE BOARD OF TRUSTEES OF THE UNIVERSITY OF ILLINOIS, priority 2020, dated 2026)
